According to US20240316047A1, “INHIBITORS OF RNA HELICASE DHX9 AND USES THEREOF” (ACCENT THERAPEUTICS, INC., priority 2022, published 2024):

Target: Human recombinant DHX9 protein (Homo sapiens (Human), UniProt Q08211)
Experiment: DHX9 ATPase assay (ADP-Glo)
Assay type: biochemical
Conditions: for IC50: read-out: DHX9 Biochemical Inflection Point

Chain of Human recombinant DHX9 protein (Q08211 whole entry): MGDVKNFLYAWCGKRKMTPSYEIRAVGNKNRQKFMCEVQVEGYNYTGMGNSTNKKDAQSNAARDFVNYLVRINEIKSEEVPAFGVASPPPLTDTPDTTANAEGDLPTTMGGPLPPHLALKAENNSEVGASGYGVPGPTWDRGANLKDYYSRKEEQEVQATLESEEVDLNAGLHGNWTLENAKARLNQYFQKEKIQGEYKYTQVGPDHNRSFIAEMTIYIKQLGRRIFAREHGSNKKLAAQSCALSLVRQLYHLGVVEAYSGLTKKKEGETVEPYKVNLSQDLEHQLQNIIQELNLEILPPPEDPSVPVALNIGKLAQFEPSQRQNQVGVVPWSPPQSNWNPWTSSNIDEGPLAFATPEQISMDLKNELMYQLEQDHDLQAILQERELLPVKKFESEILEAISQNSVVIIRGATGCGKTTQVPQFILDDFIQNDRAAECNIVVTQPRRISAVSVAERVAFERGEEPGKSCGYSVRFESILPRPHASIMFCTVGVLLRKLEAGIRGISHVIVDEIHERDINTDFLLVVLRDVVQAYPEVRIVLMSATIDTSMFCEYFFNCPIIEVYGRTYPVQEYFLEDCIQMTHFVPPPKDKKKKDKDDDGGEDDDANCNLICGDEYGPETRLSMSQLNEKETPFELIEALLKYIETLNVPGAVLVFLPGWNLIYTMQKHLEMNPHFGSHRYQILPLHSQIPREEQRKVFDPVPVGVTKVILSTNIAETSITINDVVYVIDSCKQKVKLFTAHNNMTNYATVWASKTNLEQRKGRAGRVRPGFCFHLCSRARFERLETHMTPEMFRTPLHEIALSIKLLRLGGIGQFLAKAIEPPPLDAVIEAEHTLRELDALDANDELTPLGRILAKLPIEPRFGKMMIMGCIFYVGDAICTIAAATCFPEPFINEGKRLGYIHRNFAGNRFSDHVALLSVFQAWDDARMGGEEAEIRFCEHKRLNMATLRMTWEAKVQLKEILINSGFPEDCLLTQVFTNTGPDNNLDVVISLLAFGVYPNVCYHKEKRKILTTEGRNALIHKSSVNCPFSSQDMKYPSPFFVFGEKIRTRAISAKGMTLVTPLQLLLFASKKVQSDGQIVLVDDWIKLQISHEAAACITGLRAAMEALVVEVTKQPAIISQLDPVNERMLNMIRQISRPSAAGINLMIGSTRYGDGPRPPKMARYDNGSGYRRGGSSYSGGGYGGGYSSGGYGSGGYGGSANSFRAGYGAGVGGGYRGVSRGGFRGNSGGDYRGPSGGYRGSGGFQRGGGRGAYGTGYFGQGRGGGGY

Row | Compound | DHX9 Biochemical Max Inhibition | IC50
1 | Cn1cc(C(=O)Nc2cc(Cl)cc(NS(C)(=O)=O)c2)cc1-c1ccc(N2CC(C)(F)C2)cn1 [Example 688] | 67.9 | 16.1 nM
2 | CS(=O)(=O)Nc1cc(Br)cc(NC(=O)C2CCC2c2ccccc2)c1 (centres unmarked) [Example 12] | 58.6% | 84700 nM
3 | CS(=O)(=O)Nc1cc(Cl)cc(NC(=O)c2cnn(-c3ncccc3OCc3ncc[nH]3)c2)c1 [Example 252] | 72.1% | 48.9 nM
4 | CCS(=O)(=O)Nc1cc(F)cc(NC(=O)c2cc(-c3ccccc3)cs2)c1 [Example 74] | 57.7% | 255 nM
5 | Cn1cc(C(=O)Nc2cc(Cl)cc(NS(C)(=O)=O)c2)cc1-c1ccc(N2CCN(C(=O)C3CCC3)CC2)cn1 [Example 593] | 99.9 | 30 nM
6 | Cc1cc(C(=O)Nc2cc(Cl)cc(NS(C)(=O)=O)c2)cn1-c1ccc(N2CCN(C)C(=O)C2)cn1 [Example 94] | 72.4% | 1.8 nM
7 | Cc1cccnc1-c1cc(C(=O)Nc2cc(Br)cc(NS(C)(=O)=O)c2)cn1C [Example 84, N-(3-bromo-5-(methylsulfonamido)phenyl)-1-methyl-5-(3-methylpyridin-2-yl)-1H-pyrrole-3-carboxamide] | 66.7% | 10.1 nM
8 | CS(=O)(=O)Nc1cc(Cl)cc(NC(=O)c2cc3c(=O)[nH]ccn3c2)c1 [Example 301] | 69.5% | 37.7 nM
9 | CS(=O)(=O)Nc1cc(Cl)cc(NC(=O)c2cnn(-c3ncccc3OCc3cncc(F)c3)c2)c1 [Example 186] | 87.9% | 3.9 nM
10 | CS(=O)(=O)Nc1cc(Cl)cc(NC(=O)c2cnn(-c3cc(N4CCOCC4)ccn3)c2)c1 [Example 91] | 59.7% | 27.9 nM
11 | Cc1ccc2cc(C(=O)Nc3cc(Cl)cc(NS(C)(=O)=O)c3)cn2c1 [Example 300] | 58.5% | 132 nM
12 | CCS(=O)(=O)Nc1cc(Cl)cc(NC(=O)c2cc(-c3ncc(F)cc3OCc3nccs3)c(C)s2)c1 [Example 622] | 62.9 | 23 nM
13 | Cn1cc(C(=O)Nc2cc(Cl)cc(NS(C)(=O)=O)c2)cc1-c1ncc(N2CC3(C2)CC(F)(F)C3)cc1F [Example 702] | 70.8 | 95.5 nM
14 | CCc1cncc(COc2cccnc2-c2cc(C(=O)Nc3cc(Cl)cc(NS(C)(=O)=O)c3)cn2C)c1 [Example 730] | 72.6 | 11.7 nM
15 | Cc1cc(C(=O)Nc2cc(Cl)cc(NS(C)(=O)=O)c2)cn1-c1ncc(N2CC(C(F)(F)F)C2)cn1 [Example 694] | 73 | 29.3 nM
16 | Cn1cc(C(=O)Nc2cc(Cl)cc(NS(C)(=O)=O)c2)cc1-c1ccc(N2CCOCC2)cn1 [Example 273] | 71.4% | 6.5 nM
17 | CCOc1cnc(-c2cc(C(=O)Nc3cc(Cl)cc(NS(C)(=O)=O)c3)cn2C)nc1 [Example 172] | 72.4% | 15.9 nM
18 | Cc1cc(C(=O)Nc2cc(Cl)cc(NS(C)(=O)=O)c2)cn1-c1ncc(N2CC(F)(F)C2)cc1OC1CCC1 [Example 673] | 70.2 | 104 nM
19 | CC(O)c1cc(C(=O)Nc2cc(Cl)cc(NS(C)(=O)=O)c2)cn1-c1ccccn1 (centres unmarked) [Example 287] | 82.6% | 19.1 nM

Row | Compound | DHX9 Biochemical Max Inhibition | IC50
20 | CCS(=O)(=O)Nc1cc(Cl)cc(NC(=O)c2cc(-c3ncccn3)n(C)c2)c1 [Example 173, N-(3-chloro-5-(ethylsulfonamido)phenyl)-1-methyl-5-(pyrimidin-2-yl)-1H-pyrrole-3-carboxamide] | 61.3% | 8.6 nM
21 | Cc1sc(C(=O)Nc2cc(Cl)cc(NS(=O)(=O)CCO)c2)cc1-c1ncc(N2CC(C(F)(F)F)C2)cc1F [Example 529] | 57.3 | 163 nM
22 | Cc1sc(C(=O)Nc2cc(Cl)cc(NS(C)(=O)=O)c2)cc1-c1cn(-c2ccccc2)nn1 [Example 236] | 68.9% | 52.1 nM
23 | Cn1cc(C(=O)Nc2cc(Cl)cc(NS(C)(=O)=O)c2)cc1-c1ncc(N2CC3(C2)CC(F)(F)C3)cn1 [Example 492] | 62.3 | 6.6 nM
24 | CC(C)(C)OC(=O)NC1CC2(C1)CC(n1cc(C(=O)Nc3cc(Cl)cc(NS(C)(=O)=O)c3)cn1)C2 (centres unmarked) [Example 318] | 64.4% | 
25 | COc1cnc(-c2cc(C(=O)Nc3cc(Cl)cc(NS(C)(=O)=O)c3)cn2C)nc1 [Example 549] | 73.6 | 19 nM
26 | COC(=O)N1CCN(c2cnc(-c3cc(C(=O)Nc4cc(Cl)cc(NS(C)(=O)=O)c4)cn3C)c(F)c2)CC1 [Example 464] | 74.8 | 5.7 nM
27 | Cn1cc(C(=O)Nc2cc(Cl)cc(NS(C)(=O)=O)c2)cc1-c1ncc(N2CC(F)(F)C2)cn1 [Example 597] | 69.1 | 22 nM
28 | CS(=O)(=O)Nc1cc(Cl)cc(NC(=O)c2nc(-c3ccccc3)c[nH]2)c1 [Example 9] | 44.5% | 390 nM
29 | CS(=O)(=O)Nc1cc(Cl)cc(NC(=O)c2cnn(-c3ncc(N4CCOCC4)cn3)c2)c1 [Example 394] | 73.7 | 24.8 nM
30 | Cn1cc(C(=O)Nc2cc(Cl)cc(NS(C)(=O)=O)c2)cc1-c1ncc(F)cc1OCc1cnnn1C [Example 726] | 88.1 | 17.5 nM
31 | CCS(=O)(=O)Nc1cc(Cl)cc(NC(=O)c2cc(-c3cccnc3)cs2)c1 [Example 110] | 53.7% | 40 nM
32 | CP(C)(=O)c1cccnc1-n1cc(C(=O)Nc2cc(Cl)cc(NS(C)(=O)=O)c2)cn1 [Example 201] | 66.1% | 184 nM
33 | Cc1cc(C(=O)Nc2cc(Cl)cc(NS(C)(=O)=O)c2)cn1-c1ncccc1OCc1nccs1 [Example 280] | 76.3% | 326 nM
34 | COC(=O)N1CCN(c2cnc(-c3cc(C(=O)Nc4cc(Cl)cc(NS(C)(=O)=O)c4)sc3C)c(C)c2)CC1 [Example 601] | 72.2 | 21.2 nM
35 | Cc1ccnc(OCc2cncc(F)c2)c1-c1cc(C(=O)Nc2cc(Cl)cc(NS(C)(=O)=O)c2)cn1C [Example 624] | 97.2 | 8.9 nM
36 | Cc1cc(C(=O)Nc2cc(Cl)cc(NS(C)(=O)=O)c2)cn1-c1ncc(N2CC(F)(F)C2)cc1OCC(F)(F)F [Example 708] | 73 | 69.1 nM
37 | Cc1cc(C(=O)Nc2cc(Cl)cc(NS(=O)(=O)C(F)F)c2)cn1-c1ccc(N2CCOCC2)cn1 [Example 248] | 70.8% | 185 nM
38 | Cc1cnc(-n2cc(C(=O)Nc3cc(Cl)cc(NS(C)(=O)=O)c3)cn2)c(OCc2cnco2)c1 [Example 261] | 71% | 47.5 nM

Row | Compound | DHX9 Biochemical Max Inhibition | IC50
39 | Cc1sc(C(=O)Nc2cc(Cl)cc(NS(C)(=O)=O)c2)cc1-c1ncc(OC2CCC2)cn1 [Example 452] | 80.5 | 32.9 nM
40 | CN1CCN(c2ccc(-n3cc(C(=O)Nc4cc(Br)cc(NS(C)(=O)=O)c4)cn3)nc2)CC1=O [Example 88] | 54.2% | 7.1 nM
41 | Cc1cc(C(=O)Nc2cc(Cl)cc(NS(C)(=O)=O)c2)cn1-c1ncc(N2CCOCC2)cc1F [Example 320] | 72.2% | 10.5 nM
42 | Cn1cc(C(=O)Nc2cc(Cl)cc(NS(C)(=O)=O)c2)cc1-c1c(F)cc(F)c[n+]1[O-] [Example 567] | 77 | 58.4 nM
43 | Cn1cc(C(=O)Nc2cc(Cl)cc(NS(C)(=O)=O)c2)cc1-c1ccc(F)cn1 [Example 575] | 76.2 | 17.7 nM
44 | COc1cnc(-c2cc(C(=O)Nc3cc(Cl)cc(NS(C)(=O)=O)c3)cn2CC(F)(F)F)nc1 [Example 563] | 66.9 | 71.3 nM
45 | CCCS(=O)(=O)Nc1cc(Cl)cc(NC(=O)c2cc(-c3ccc(N4CC(F)(F)C4)cn3)n(C)c2)c1 [Example 531] | 72.3 | 2600 nM
46 | CS(=O)(=O)Nc1cc(Br)cc(NC(=O)c2cc(-c3cnccn3)cs2)c1 [Example 18] | 61% | 8.6 nM
47 | CCS(=O)(=O)Nc1cc(Cl)cc(NC(=O)c2cc(-c3ncc(F)cc3C)c(C)s2)c1 [Example 350] | 67.1% | 
48 | CS(=O)(=O)Nc1cc(F)cc(NC(=O)c2cc(Br)[nH]n2)c1 [Example 4] | 64.1% | 4820 nM
49 | Cc1cc(C(=O)Nc2cc(Cl)cc(NS(C)(=O)=O)c2)cn1-c1ncc(OC2COC2)cn1 [Example 669] | 80.8 | 1.9 nM
50 | CS(=N)(=O)Nc1cc(Br)cc(NC(=O)c2cc(-c3ccccn3)cs2)c1 (centres unmarked) [Example 121, N-(3-bromo-5-(methylsulfonoamidimidamido)phenyl)-4-(pyridin-2-yl)thiophene-2-carboxamide] | 63.5% | 40.6 nM
51 | Cc1cc(C(=O)Nc2cc(Cl)cc(NS(C)(=O)=O)c2)cn1-c1ncccc1OCC1CC1 [Example 713] | 76 | 25 nM
52 | CC1CN(c2ccc(-n3cc(C(=O)Nc4cc(Cl)cc(NS(C)(=O)=O)c4)cn3)nc2)CCO1 (centres unmarked) [Example 92] | 61.1% | 22.1 nM
53 | CS(=O)(=O)Nc1cc(Cl)cc(NC(=O)c2cnn(C3CC4(C3)CN(CC(F)(F)F)C4)c2)c1 [Example 312] | 69.2% | 220 nM
54 | CS(=O)(=O)Nc1cc(Cl)cc(NC(=O)c2cccc3ccoc23)c1 [Example 135] | 44.6% | 1070 nM
55 | Cn1cc(C(=O)Nc2cc(Cl)cc(NS(C)(=O)=O)c2)cc1-c1ncc(N2CC(F)(F)C2)cc1OCc1cnco1 [Example 733] | 61.3 | 21.8 nM
56 | Cn1cc(C(=O)Nc2cc(Cl)cc(NS(C)(=O)=O)c2)cc1-c1ncccn1 [Example 82] | 69.4% | 9.2 nM
